Each structure is given as a SMILES string.

In the test the target is T1, human recombinant 15-PGDH (Homo sapiens, UniProt P15428).
T1 sequence (P15428 1-266): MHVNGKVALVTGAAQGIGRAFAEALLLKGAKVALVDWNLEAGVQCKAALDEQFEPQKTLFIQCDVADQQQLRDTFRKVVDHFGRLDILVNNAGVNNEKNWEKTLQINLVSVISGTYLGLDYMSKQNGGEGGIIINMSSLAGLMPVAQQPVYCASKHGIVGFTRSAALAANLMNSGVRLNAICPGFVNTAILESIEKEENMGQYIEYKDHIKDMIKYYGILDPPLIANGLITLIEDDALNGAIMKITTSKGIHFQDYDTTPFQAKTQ
The test can be described thus: Inhibition of recombinant 15-PGDH enzymatic activity (NADH quantification after addition of PGE2 and NAD+). The conditions noted are these: recombinant 15-PGDH; 15 min pre-incubation, 60-minute reaction, room temperature, pH 7.5; PGE2 and NAD+; read-out: PGDH-Lumi IC50. The class given is biochemical. How it is done: The compound dose-response of its inhibition of 15-PGDH activity was determined in human recombinant 15-PGDH enzymatical assays. These assays measured 15-PGDH enzymatic activity by quantifying the amount of NADH produced during a 60-minute reaction initiated by the addition of PGE2 and NAD+. Under the conditions of these experiments, the increase of NADH signal upon oxidation of PGE2 and reduction of NAD+ was linearly proportional to 15-PGDH enzymatic activity. The recombinant human, mouse, rat and dog 15-PGDH enzymatic assays were performed in a 25 μL volume of reaction buffer containing 50 mM Tris, pH 7.5, 0.01% Tween-20 and 100 μM DTT in a 384-well microtiter plate. In concentration-response experiments with tested compounds, 22 concentrations from 2-fold serial dilutions in DMSO were pre-incubated with 15-PGDH for 15 minutes at room temperature. Then, PGE2 and ß-NAD+ were added to initiate the 15-PGDH reaction. After 60 minutes at room temperature, the reaction was quenched and NADH signal was measured using a microtiter plate reader.
The following data (Table 11-1) provides the IC50 of each compound for inhibiting enzymatic activity of recombinant 15-PGDH in the assay described above.
One may read the IC50 as the concentration that inhibits the measured activity by half. Regarding `Cn1cc2cc(-c3ccc4cc(C(=O)N5CCOCC5)sc4n3)cnc2n1` [Compound B8, (6-(2-methyl-2H-pyrazolo[3,4-b]pyridin-5-yl)thieno[2,3-b]pyridin-2-yl)(4-morpholinyl)methanone], the IC50 was 5.55 nM.

Turning to `C[C@@H]1COCCN1C(=O)c1cc2ccc(-c3cc(=O)n(C)cn3)nc2s1` [Compound B36R, 3-methyl-6-(2-(((3R)-3-methyl-4-morpholinyl)carbonyl)thieno[2,3-b]pyridin-6-yl)-4(3H)-pyrimidinone], the IC50 was 311 nM.

For the molecule `C[C@@H]1COCCN1C(=O)c1sc2nc(-c3cnc4nn(C)cc4c3)cc(C3CCC3)c2c1N` [Compound B6R, (3-amino-4-cyclobutyl-6-(2-methyl-2H-pyrazolo[3,4-b]pyridin-5-yl)thieno[2,3-b]pyridin-2-yl)((3R)-3-methyl-4-morpholinyl)methanone], the IC50 was 0.816 nM.

Take `Cc1c(C(=O)N2CCOC[C@@H]2C)sc2cc(-c3cnc4nn(C)cc4c3)ccc12` [Compound A1S, (3-methyl-6-(2-methyl-2H-pyrazolo[3,4-b]pyridin-5-yl)-1-benzothiophen-2-yl)((3S)-3-methyl-4-morpholinyl)methanone]: the IC50 is 217 nM.

Regarding `CO[C@H]1CCCN(C(=O)c2sc3cc(-c4cnc5nn(C)cc5c4)ccc3c2C)C1` [Compound A7S, ((3S)-3-methoxy-1-piperidinyl)(3-methyl-6-(2-methyl-2H-pyrazolo[3,4-b]pyridin-5-yl)-1-benzothiophen-2-yl)methanone], the IC50 stood at 66.4 nM.

With `C[C@H]1COCCN1C(=O)c1cc2ccc(-c3ccc(=O)[nH]c3)nc2s1` [Compound B48S, 5-(2-(((3S)-3-methyl-4-morpholinyl)carbonyl)thieno[2,3-b]pyridin-6-yl)-2(1H)-pyridinone], the IC50 is 986 nM.

Turning to `Cn1cc2cc(-c3ccc4cc(C(=O)N5CCOC(C(F)(F)F)C5)sc4n3)cnc2n1` (centres unmarked) [Compound B46, (6-(2-methyl-2H-pyrazolo[3,4-b]pyridin-5-yl)thieno[2,3-b]pyridin-2-yl)(2-(trifluoromethyl)-4-morpholinyl)methanone], the half-maximal inhibitory concentration (IC50) stood at 2.6 nM.

`Cn1cc2cc(-c3ccc4cc(C(=O)N5CCOCC56CCC6)sc4n3)cnc2n1` [Compound B59, (6-(2-methyl-2H-pyrazolo[3,4-b]pyridin-5-yl)thieno[2,3-b]pyridin-2-yl)(8-oxa-5-azaspiro[3.5]nonan-5-yl)methanone]: the IC50 amounted to 46.4 nM.

Consider `C[C@H]1COCCN1C(=O)c1cc2ccc(-c3cnc4c(c3)nnn4C)nc2s1` [Compound B44S, ((3S)-3-methyl-4-morpholinyl)(6-(3-methyl-3H-[1,2,3]triazolo[4,5-b]pyridin-6-yl)thieno[2,3-b]pyridin-2-yl)methanone], for which the IC50 worked out at 54.2 nM.

In the case of `Cn1cc2cc(-c3ccc4cc(C(=O)N5CC6CCC(C5)O6)sc4n3)cnc2n1` [Compound B37, (6-(2-methyl-2H-pyrazolo[3,4-b]pyridin-5-yl)thieno[2,3-b]pyridin-2-yl)(8-oxa-3-azabicyclo[3.2.1]octan-3-yl)methanone], the IC50 is 2.38 nM.

In the case of `C[C@@H]1COCCN1C(=O)c1nc2ccc(-c3cnc4nn(C)cc4c3)nc2s1` [Compound C52R, ((3R)-3-methyl-4-morpholinyl)(5-(2-methyl-2H-pyrazolo[3,4-b]pyridin-5-yl)[1,3]thiazolo[5,4-b]pyridin-2-yl)methanone], the IC50 was determined as 17 nM.

For the molecule `C[C@@H]1COCCN1C(=O)c1cc2ccc(-c3cnc4nn(C)cc4c3)nc2s1` [Compound B9R, ((3R)-3-methyl-4-morpholinyl)(6-(2-methyl-2H-pyrazolo[3,4-b]pyridin-5-yl)thieno[2,3-b]pyridin-2-yl)methanone], the IC50 came out at 6.39 nM.

As for `CN(C(=O)c1cc2c(C3CC3)cc(-c3cnc4nn(C)cc4c3)nc2s1)C1CCC1` [Compound B15, N-cyclobutyl-4-cyclopropyl-N-methyl-6-(2-methyl-2H-pyrazolo[3,4-b]pyridin-5-yl)thieno[2,3-b]pyridine-2-carboxamide], the 50% inhibitory concentration (IC50) is 0.475 nM.

For `CC1CC(F)(F)CCN1C(=O)c1cc2ccc(-c3cnc4nn(C)cc4c3)nc2s1` (centres unmarked) [Compound B27], the IC50 stood at 1.7 nM.

With `C[C@H]1COCCN1C(=O)c1cc2ccc(-c3nccs3)nc2s1` [Compound B33S, ((3S)-3-methyl-4-morpholinyl)(6-(1,3-thiazol-2-yl)thieno[2,3-b]pyridin-2-yl)methanone], the 50% inhibitory concentration (IC50) came to 2650 nM.

Turning to `Cn1cc2cc(-c3ccc4cc(C(=O)N5CCC(C(F)(F)F)CC5)sc4n3)cnc2n1` [Compound B21, (6-(2-methyl-2H-pyrazolo[3,4-b]pyridin-5-yl)thieno[2,3-b]pyridin-2-yl)(4-(trifluoromethyl)-1-piperidinyl)methanone], the IC50 is 1.45 nM.

Regarding `C[C@H]1COCCN1C(=O)c1cc2ccc(-c3cnc4c(=O)n(C)ccc4c3)nc2s1` [Compound B62S, 7-methyl-3-(2-(((3S)-3-methyl-4-morpholinyl)carbonyl)thieno[2,3-b]pyridin-6-yl)-1,7-naphthyridin-8(7H)-one], the IC50 is 39.2 nM.

In the case of `C[C@H]1COCCN1C(=O)c1cc2ccc(-c3cc(=O)n(C)cn3)nc2s1` [Compound B34S, 3-methyl-6-(2-(((3S)-3-methyl-4-morpholinyl)carbonyl)thieno[2,3-b]pyridin-6-yl)-4(3H)-pyrimidinone], the IC50 turned out to be 200 nM.

`Cc1c(C(=O)N2CCOCC2)sc2cc(-c3ccc(=O)n(C)c3)ccc12` [Compound A9, 1-methyl-5-(3-methyl-2-(4-morpholinylcarbonyl)-1-benzothiophen-6-yl)-2(1H)-pyridinone]: the IC50 came out at 4960 nM.

For the molecule `CC1CC(F)(F)CCN1C(=O)c1cc2ccc(-c3cnc4nn(C)cc4c3)nc2s1` (single isomer, unassigned) [Compound B27R], the concentration for half-maximal inhibition (IC50) was 1.51 nM.

As for `Cn1cc2cc(-c3ccc4cc(C(=O)N5CCOC(C)(C)C5)sc4n3)cnc2n1` [Compound B40, (2,2-dimethyl-4-morpholinyl)(6-(2-methyl-2H-pyrazolo[3,4-b]pyridin-5-yl)thieno[2,3-b]pyridin-2-yl)methanone], the IC50 was 1.97 nM.

Take `Cn1cc2cc(-c3ccc4cc(C(=O)N5CCOCC56CC6)sc4n3)cnc2n1` [Compound B45, (6-(2-methyl-2H-pyrazolo[3,4-b]pyridin-5-yl)thieno[2,3-b]pyridin-2-yl)(7-oxa-4-azaspiro[2.5]octan-4-yl)methanone]: the IC50 was 46.1 nM.

Regarding `Cn1cc2cc(-c3ccc4sc(C(=O)N5CCOCC5)cc4n3)cnc2n1` [Compound C44, (5-(2-methyl-2H-pyrazolo[3,4-b]pyridin-5-yl)thieno[3,2-b]pyridin-2-yl)(4-morpholinyl)methanone], the IC50 is 4.51 nM.

As to `O=C(c1cc2c(C3CC3)cc(-c3cnc(N4CCNCC4)nc3)nc2s1)N1CCCCC1` [Compound B22, (4-cyclopropyl-6-(2-(1-piperazinyl)-5-pyrimidinyl)thieno[2,3-b]pyridin-2-yl)(1-piperidinyl)methanone], the IC50 stood at 3.61 nM.

As for `C[C@H]1CC(F)(F)CCN1C(=O)c1cc2ccc(-c3cnc4nn(C)cc4c3)nc2s1` (single isomer, unassigned) [Compound B27S], the IC50 turned out to be 1.24 nM.

In the case of `O=C(c1cc2ccc(-c3cnc4nccnc4c3)nc2s1)N1CCOCC1` [Compound B56, 4-morpholinyl(6-(pyrido[2,3-b]pyrazin-7-yl)thieno[2,3-b]pyridin-2-yl)methanone], the IC50 was found to be 5.91 nM.

On to `C[C@H]1COCCN1C(=O)c1cc2ccc(-c3ccc(=O)n(C)c3)nc2s1` [Compound B32S, 1-methyl-5-(2-(((3S)-3-methyl-4-morpholinyl)carbonyl)thieno[2,3-b]pyridin-6-yl)-2(1H)-pyridinone], for which the IC50 worked out at 623 nM.

Turning to `Cn1cc2cc(-c3ccc4sc(C(=O)N5CCOCC5)c(N)c4n3)cnc2n1` [Compound C46, (3-amino-5-(2-methyl-2H-pyrazolo[3,4-b]pyridin-5-yl)thieno[3,2-b]pyridin-2-yl)(4-morpholinyl)methanone], the IC50 turned out to be 20.1 nM.

With `Cn1cc2cc(-c3ccc4sc(C(=O)N5CCCC(F)(F)C5)cc4n3)cnc2n1` [Compound C43, (3,3-difluoro-1-piperidinyl)(5-(2-methyl-2H-pyrazolo[3,4-b]pyridin-5-yl)thieno[3,2-b]pyridin-2-yl)methanone], the IC50 came to 0.375 nM.

As for `Cn1cc2cc(-c3cnc4sc(C(=O)N5CCCCC5)cc4c3)cnc2n1` [Compound B16, (5-(2-methyl-2H-pyrazolo[3,4-b]pyridin-5-yl)thieno[2,3-b]pyridin-2-yl)(1-piperidinyl)methanone], the IC50 is 9.51 nM.

Turning to `Cc1c(C(=O)N2CCOCC2)sc2cc(-c3cncnc3)ccc12` [Compound A8, (3-methyl-6-(5-pyrimidinyl)-1-benzothiophen-2-yl)(4-morpholinyl)methanone], the IC50 is 4500 nM.

In the case of `C[C@@H]1COCCN1C(=O)c1cc2ccc(-c3ccc(=O)[nH]c3)nc2s1` [Compound B48R, 5-(2-(((3R)-3-methyl-4-morpholinyl)carbonyl)thieno[2,3-b]pyridin-6-yl)-2(1H)-pyridinone], the concentration for half-maximal inhibition (IC50) worked out at 1030 nM.

The values are drawn from patent US20260315492A1, “5,6-FUSED BICYCLIC AMIDES AND COMPOSITIONS FOR USE AS 15-PROSTAGLANDIN DEHYDROGENASE MODULATORS” (AMGEN INC., priority 2023, published 2026).
